{"source": "patent US8263656B2", "about": "(Hoffmann-La Roche Inc., priority 2008, dated 2012)"}
{"molecular_target": "T1, human CRTH2 (Homo sapiens, UniProt Q9Y5Y4)", "T1 construct": "expressed in transfected cells", "T1 sequence (Q9Y5Y4 1-395)": "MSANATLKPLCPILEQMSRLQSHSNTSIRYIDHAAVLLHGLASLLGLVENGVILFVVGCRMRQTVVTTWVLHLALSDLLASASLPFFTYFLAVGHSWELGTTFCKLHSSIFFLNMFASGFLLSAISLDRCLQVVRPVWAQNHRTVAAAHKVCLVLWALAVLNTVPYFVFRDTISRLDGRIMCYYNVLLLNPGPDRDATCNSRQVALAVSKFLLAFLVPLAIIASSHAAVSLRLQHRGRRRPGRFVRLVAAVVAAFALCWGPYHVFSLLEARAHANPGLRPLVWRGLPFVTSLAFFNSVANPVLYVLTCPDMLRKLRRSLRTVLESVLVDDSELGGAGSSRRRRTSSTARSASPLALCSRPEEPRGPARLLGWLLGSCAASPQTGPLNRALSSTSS", "assay": "Human CRTH2 Receptor Binding Assay (whole cell, [3H]ramatroban competition)", "settings": "CHO-K1 cells expressing human CRTH2 and G-alpha16; 20 nM [3H]ramatroban; 1 hour, room temperature", "excerpt": "A whole cell receptor binding assay using [^3H]ramatroban as the competing radioactive ligand was employed to evaluate the compound binding activity to human CRTH2. The radioactive ligand [^3H]ramatroban was synthesized according to Sugimoto et. al. (Eur. J. Pharmacol. 524, 30-37, 2005) to a specific activity of 42 Ci/mmol.\nA cell line stably expressing human CRTH2 was established by transfecting CHO-K1 cells with two mammalian expression vectors that harbored human CRTH2 and G-alpha16 cDNAs, respectively, using FuGene® 6 transfection reagent (from Roche). Stable clones expressing CRTH2 were selected by staining each clone with BM16 (BD Pharmingen™ from BD Biosciences, a division of Becton, Dickinson and Company), which is a rat monoclonal antibody to human CRTH2. The cells were maintained as monolayer cultures in Ham's F-12 medium containing 10% fetal bovine serum, 100 units/mL penicillin, […] streptomycin, 2 mM glutamine, 0.5 mg/mL G418 (geneticin) for CRTH2, and 0.2 mg/mL hygromycin-B (for G-alpha 16). For whole cell receptor binding assay, the monolayer cells were rinsed once with PBS (phosphate buffered saline), dissociated using diammonium ethylenediaminetetraacetate (Versene™ EDTA from the Dow Chemical Company), and suspended in PBS containing 10 mM MgCl2 and 0.06% BSA (bovine serum albumin) at 1.5×10^6 cells/mL.\nThe binding reactions (0.2 mL) were performed in 96-well plates at room temperature in PBS containing 1.5×10^5 cells, 10 mM MgCl2, 0.06% BSA, 20 nM [^3H]ramatroban, and test compound at various concentrations. After 1 hour of binding reactions, the cells were harvested on GF™/B filter microplates (microtiter plates with embedded glass fiber from PerkinElmer, Inc.) and washed 5 times with PBS using a Filtermate™ Harvester (a cell harvester that harvests and washes cells from microplates from PerkinElmer, Inc.). The radioactivities bound to the cells were determined using a microplate scintillation counter (TopCount® NXT, from PerkinElmer, Inc.) after adding 50 μL of Microscint™ 20 scintillation fluid (from PerkinElmer, Inc.) to each well of the filter plates. The radioactivity from non-specific binding was determined by replacing compound with 10 μM of 15(R)-15-methyl PGD2 (from Cayman Chemical Company) in the reaction mixtures. The radioactivity bound to the cells in the absence of compound (total binding) was determined by replacing compound with 0.25% of DMSO (dimethyl sulfoxide) in the reaction mixture. Specific binding data were obtained by subtracting the radioactivity of non-specific binding from each binding data.\nThe IC50 value is defined as the concentration of the tested compound that is required for 50% inhibition of total specific binding. In order to calculate the IC50 value, the percent inhibition data were determined for 7 concentrations for each compound. The percent inhibition for a compound at each concentration was calculated according to the following formula, [1-(specific binding in the presence of compound)/(total specific binding)]×100. The IC50 value was then obtained by fitting the percent inhibition data to a sigmoidal dose-response (4 parameter logistic) model in the XLfit® software Excel add-in program [from ID Business Solutions Ltd., model 205, where F(x)=(A+(B−A)/(1+((C/x)^D)))].", "units": {"IC50": "nM"}}
{"smiles": "O=C(O)COc1c(F)c(Cl)cc2c1CCC[C@H]2NS(=O)(=O)c1cc(C(F)(F)F)cc(C(F)(F)F)c1", "note": "[Example 1-1, [(R)-5-(3,5-Bis-trifluoromethyl-benzenesulfonylamino)-3-chloro-2-fluoro-5,6,7,8-tetrahydro-naphthalen-1-yloxy]-acetic acid]", "IC50": 2.4}
{"smiles": "Cc1ccc2c(c1OCC(=O)O)CCCC2NS(=O)(=O)c1cc(C(F)(F)F)cc(C(F)(F)F)c1", "note": "(centres unmarked) [Example 1-3, [5-(3,5-Bis-trifluoromethyl-benzenesulfonyl-amino)-2-methyl-5,6,7,8-tetrahydro-naphthalen-1-yloxy]-acetic acid]", "IC50": 147}
{"smiles": "CCc1ccc2c(c1OCC(=O)O)CCCC2NS(=O)(=O)c1cc(C(F)(F)F)cc(C(F)(F)F)c1", "note": "(centres unmarked) [Example 1-4, [5-(3,5-Bis-trifluoromethyl-benzenesulfonyl-amino)-2-ethyl-5,6,7,8-tetrahydro-naphthalen-1-yloxy]-acetic acid]", "IC50": 64}
{"smiles": "Cc1c(Cl)cc2c(c1OCC(=O)O)CCCC2NS(=O)(=O)c1cc(C(F)(F)F)cc(C(F)(F)F)c1", "note": "(centres unmarked) [Example 1-5, [5-(3,5-Bis-trifluoromethyl-benzenesulfonyl-amino)-3-chloro-2-methyl-5,6,7,8-tetrahydro-naphthalen-1-yloxy]-acetic acid]", "IC50": 28.4}
{"smiles": "O=C(O)COc1cc(Cl)cc2c1CCCC2NS(=O)(=O)c1cc(C(F)(F)F)cc(C(F)(F)F)c1", "note": "(centres unmarked) [Example 1-6]", "IC50": 5.8}
{"smiles": "O=C(O)COc1c(Cl)ccc2c1CCCC2NS(=O)(=O)c1cc(C(F)(F)F)cc(C(F)(F)F)c1", "note": "(centres unmarked) [Example 1-7, [5-(3,5-Bis-trifluoromethyl-benzenesulfonyl-amino)-2-chloro-5,6,7,8-tetrahydro-naphthalen-1-yloxy]-acetic acid]", "IC50": 292}
{"smiles": "O=C(O)COc1cc(Cl)cc2c1CCC[C@H]2NS(=O)(=O)c1cc(C(F)(F)F)cc(C(F)(F)F)c1", "note": "[Example 1-8]", "IC50": 3.5}
{"smiles": "O=C(O)COc1c(F)c(Cl)cc2c1CCCC2NS(=O)(=O)c1cc(C(F)(F)F)cc(C(F)(F)F)c1", "note": "(centres unmarked) [Example 1-9, [5-(3,5-Bis-trifluoromethyl-benzenesulfonyl-amino)-3-chloro-2-fluoro-5,6,7,8-tetrahydro-naphthalen-1-yloxy]-acetic acid]", "IC50": 5.8}
{"smiles": "O=C(O)COc1c(F)c(Cl)cc2c1CCCC2NS(=O)(=O)c1cc(Cl)ccc1Cl", "note": "(centres unmarked) [Example 1-10]", "IC50": 11.4}
{"smiles": "O=C(O)COc1cc(Cl)cc2c1CCCC2NS(=O)(=O)c1ccc(Cl)cc1Cl", "note": "(centres unmarked) [Example 1-11, [3-Chloro-5-(2,4-dichloro-benzenesulfonyl-amino)-5,6,7,8-tetrahydro-naphthalen-1-yloxy]-acetic acid]", "IC50": 3.5}
{"smiles": "O=C(O)COc1c(Cl)c(Cl)cc2c1CCCC2NS(=O)(=O)c1cc(C(F)(F)F)cc(C(F)(F)F)c1", "note": "(centres unmarked) [Example 1-12, [5-(3,5-Bis-trifluoromethyl-benzenesulfonyl-amino)-2,3-dichloro-5,6,7,8-tetrahydro-naphthalen-1-yloxy]-acetic acid]", "IC50": 26.1}
{"smiles": "O=C(O)COc1cc(Cl)cc2c1CCCC2NS(=O)(=O)c1cc(Cl)ccc1Cl", "note": "(centres unmarked) [Example 1-13, [3-Chloro-5-(2,5-dichloro-benzenesulfonyl-amino)-5,6,7,8-tetrahydro-naphthalen-1-yloxy]-acetic acid]", "IC50": 7.1}
{"smiles": "O=C(O)COc1c(F)c(Cl)cc2c1CCCC2NS(=O)(=O)c1ccc(Cl)cc1Cl", "note": "(centres unmarked) [Example 1-14]", "IC50": 7.7}
{"smiles": "O=C(O)COc1c(F)c(Cl)cc2c1CCCC2NS(=O)(=O)c1cc(Br)cc(C(F)(F)F)c1", "note": "(centres unmarked) [Example 1-15, [5-(3-Bromo-5-trifluoromethyl-benzenesulfonyl-amino)-3-chloro-2-fluoro-5,6,7,8-tetrahydro-naphthalen-1-yloxy]-acetic acid]", "IC50": 8}
{"smiles": "O=C(O)COc1cc(Cl)cc2c1CCCC2NS(=O)(=O)c1cc(F)cc(C(F)(F)F)c1", "note": "(centres unmarked) [Example 1-16, [3-Chloro-5-(3-fluoro-5-trifluoromethyl-benzenesulfonyl-amino)-5,6,7,8-tetrahydro-naphthalen-1-yloxy]-acetic acid]", "IC50": 3.8}
{"smiles": "O=C(O)COc1cc(Cl)cc2c1CCCC2NS(=O)(=O)c1cc(Br)cc(C(F)(F)F)c1", "note": "(centres unmarked) [Example 1-17, [5-(3-Bromo-5-trifluoromethyl-benzenesulfonyl-amino)-3-chloro-5,6,7,8-tetrahydro-naphthalen-1-yloxy]-acetic acid]", "IC50": 3.6}
{"smiles": "O=C(O)COc1cc(Cl)cc2c1CCC[C@H]2NS(=O)(=O)c1ccc(Cl)cc1Cl", "note": "[Example 1-18, [(R)-3-Chloro-5-(2,4-dichloro-benzenesulfonyl-amino)-5,6,7,8-tetrahydro-naphthalen-1-yloxy]-acetic acid]", "IC50": 2.8}
{"smiles": "O=C(O)COc1cc(Br)cc2c1CCCC2NS(=O)(=O)c1cc(C(F)(F)F)cc(C(F)(F)F)c1", "note": "(centres unmarked) [Example 1-19, [5-(3,5-Bis-trifluoromethyl-benzenesulfonyl-amino)-3-bromo-5,6,7,8-tetrahydro-naphthalen-1-yloxy]-acetic acid]", "IC50": 2.9}
{"smiles": "O=C(O)COc1cc(Br)cc2c1CCC[C@H]2NS(=O)(=O)c1cc(C(F)(F)F)cc(C(F)(F)F)c1", "note": "[Example 1-20, [(R)-5-(3,5-Bis-trifluoromethyl-benzenesulfonyl-amino)-3-bromo-5,6,7,8-tetrahydro-naphthalen-1-yloxy]-acetic acid]", "IC50": 2.5}
{"smiles": "O=C(O)COc1c(F)c(Cl)cc2c1CCCC2NS(=O)(=O)c1cc(F)cc(C(F)(F)F)c1", "note": "(centres unmarked) [Example 1-21, [3-Chloro-2-fluoro-5-(3-fluoro-5-trifluoromethyl-benzenesulfonyl-amino)-5,6,7,8-tetrahydro-naphthalen-1-yloxy]-acetic acid]", "IC50": 2.8}
{"smiles": "O=C(O)COc1c(F)ccc2c1CCCC2NS(=O)(=O)c1cc(C(F)(F)F)cc(C(F)(F)F)c1", "note": "(centres unmarked) [Example 1-22, [5-(3,5-Bis-trifluoromethyl-benzenesulfonyl-amino)-2-fluoro-5,6,7,8-tetrahydro-naphthalen-1-yloxy]-acetic acid]", "IC50": 33.7}
{"smiles": "COc1cc(OCC(=O)O)c2c(c1)[C@H](NS(=O)(=O)c1cc(C(F)(F)F)cc(C(F)(F)F)c1)CCC2", "note": "[Example 1-23, [(R)-5-(3,5-Bis-trifluoromethyl-benzenesulfonyl-amino)-3-methoxy-5,6,7,8-tetrahydro-naphthalen-1-yloxy]-acetic acid]", "IC50": 3.6}
{"smiles": "O=C(O)COc1cc(-c2ccccc2)cc2c1CCCC2NS(=O)(=O)c1cc(C(F)(F)F)cc(C(F)(F)F)c1", "note": "(centres unmarked) [Example 1-24, [5-(3,5-Bis-trifluoromethyl-benzenesulfonyl-amino)-3-phenyl-5,6,7,8-tetrahydro-naphthalen-1-yloxy]-acetic acid]", "IC50": 3.7}
{"smiles": "O=C(O)COc1c(Cl)ccc2c1CCC[C@H]2NS(=O)(=O)c1cc(C(F)(F)F)cc(C(F)(F)F)c1", "note": "[Example 1-25, [(R)-5-(3,5-Bis-trifluoromethyl-benzenesulfonyl-amino)-2-chloro-5,6,7,8-tetrahydro-naphthalen-1-yloxy]-acetic acid]", "IC50": 95.9}
{"smiles": "O=C(O)COc1c(F)c(F)cc2c1CCCC2NS(=O)(=O)c1cc(F)cc(C(F)(F)F)c1", "note": "(centres unmarked) [Example 1-26, [2,3-Difluoro-5-(3-fluoro-5-trifluoromethyl-benzenesulfonyl-amino)-5,6,7,8-tetrahydro-naphthalen-1-yloxy]-acetic acid]", "IC50": 42.2}
{"smiles": "O=C(O)COc1cc(F)cc2c1CCCC2NS(=O)(=O)c1cc(F)cc(C(F)(F)F)c1", "note": "(centres unmarked) [Example 1-27, [3-Fluoro-5-(3-fluoro-5-trifluoromethyl-benzenesulfonyl-amino)-5,6,7,8-tetrahydro-naphthalen-1-yloxy]-acetic acid]", "IC50": 40.1}
